Values quoted from earlier work, collected in patent US8410096B2, “Antitumor agent, kit and method of treating cancer” (Shizuoka Prefecture, priority 2008, dated 2013).

System: 5-FU decomposition
Settings: compared with uracil

## Oc1cc(O)c(Cl)cn1 [gimeracil, 2,4-dihydroxy-5-chloropyridine]
  5-FU decomposition inhibitory action relative to uracil: about 200 times
